# Measurements published in ChEMBL document CHEMBL1156404, “Haploscleridamine, a novel tryptamine-derived alkaloid from a sponge of the order haplosclerida: an inhibitor of cathepsin K” (J Nat Prod, 2002).
# Biological target: T1, Cathepsin K (Homo sapiens, UniProt P43235)
# T1 sequence (P43235 whole entry): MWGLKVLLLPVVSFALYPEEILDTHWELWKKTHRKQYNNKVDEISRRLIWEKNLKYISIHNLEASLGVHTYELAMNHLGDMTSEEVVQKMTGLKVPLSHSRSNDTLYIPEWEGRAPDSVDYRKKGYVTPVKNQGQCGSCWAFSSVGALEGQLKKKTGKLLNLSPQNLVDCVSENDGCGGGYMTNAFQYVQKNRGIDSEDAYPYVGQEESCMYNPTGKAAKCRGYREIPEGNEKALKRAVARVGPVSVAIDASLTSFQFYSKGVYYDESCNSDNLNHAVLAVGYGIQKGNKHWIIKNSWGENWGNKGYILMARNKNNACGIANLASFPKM
# Test: Inhibition of cathepsin K by fluorimetric assay
row,SMILES,IC50
1,c1ccc2c3c([nH]c2c1)C(Cc1c[nH]cn1)NCC3 (configuration not stated) [HAPLOSCLERIDAMINE],26 µM
2,NCCc1c[nH]c2ccccc12 [TRYPTAMINE],15 µM
